Assay results from ChEMBL document CHEMBL1629553, “Antimalarial activity of a new stilbene glycoside from Parthenocissus tricuspidata in mice” (Antimicrob Agents Chemother, 2008).
Active and inactive are the calls of the source. No cut-off for these calls is given here.

Key:
Plasmodium berghei [1] = assay: Antimalarial activity against chloroquine-sensitive Plasmodium berghei ATCC 50175 infected in ICR mouse assessed as parasitemia at 1.2 mg/kg/day, po pretreated for 4 days before infection and measured after 72 hrs (reference value: 4.6+/-0.21 %); type: functional
Plasmodium berghei [2] = assay: Antimalarial activity against chloroquine-sensitive Plasmodium berghei ATCC 50175 infected in ICR mouse assessed as chemosuppression of parasitemia at 1.2 mg/kg/day, po pretreated for 4 days before infection and measured after 72 hrs; type: functional
Plasmodium berghei [3] = assay: Antimalarial activity against chloroquine-sensitive Plasmodium berghei ATCC 50175 infected in ICR mouse assessed as chemosuppression of parasitemia at 5 mg/kg/day, po administered 24 hrs post-treatment measured after 4 days; type: functional
Plasmodium berghei [4] = assay: Antimalarial activity against chloroquine-sensitive Plasmodium berghei ATCC 50175 infected in ICR mouse assessed as chemosuppression of parasitemia at 25 mg/kg/day, po administered 24 hrs post-treatment measured after 4 days; type: functional
Plasmodium berghei [5] = assay: Antimalarial activity against chloroquine-sensitive Plasmodium berghei ATCC 50175 infected in ICR mouse assessed as chemosuppression of parasitemia at 10 mg/kg/day, po administered 24 hrs post-treatment measured after 4 days; type: functional
Plasmodium berghei [6] = assay: Antimalarial activity against chloroquine-sensitive Plasmodium berghei ATCC 50175 infected in ICR mouse assessed as reduced parasitemia at 10 mg/kg/day, po administered 24 hrs post-treatment measured on day 3; type: functional; parameters: scale not given: the % may be the effect or the level left
Plasmodium berghei [7] = assay: Antimalarial activity against chloroquine-sensitive Plasmodium berghei ATCC 50175 infected in ICR mouse assessed as reduced parasitemia at 25 mg/kg/day, po administered 24 hrs post-treatment for 4 day measured on day 7; type: functional; parameters: scale not given: the % may be the effect or the level left
Plasmodium berghei [8] = assay: Antimalarial activity against chloroquine-sensitive Plasmodium berghei ATCC 50175 infected in ICR mouse assessed as reduced parasitemia at 10 mg/kg/day, po administered 24 hrs post-treatment for 4 day measured on day 7; type: functional; parameters: scale not given: the % may be the effect or the level left
Plasmodium berghei [9] = assay: Antimalarial activity against chloroquine-sensitive Plasmodium berghei ATCC 50175 infected in ICR mouse assessed as parasitemia at 10 mg/kg/day, po administered 24 hrs post-treatment measured after 4 days (reference value: 56.3+/-0.16 %); type: functional
Plasmodium berghei [10] = assay: Antimalarial activity against chloroquine-sensitive Plasmodium berghei ATCC 50175 infected in ICR mouse assessed as chemosuppression of parasitemia at 10 mg/kg/day, po pretreated for 4 days before infection and measured after 72 hrs; type: functional
Plasmodium berghei [11] = assay: Antimalarial activity against chloroquine-sensitive Plasmodium berghei ATCC 50175 infected in ICR mouse assessed as reduced parasitemia at 5 mg/kg/day, po administered 24 hrs post-treatment for 4 day measured on day 7; type: functional; parameters: scale not given: the % may be the effect or the level left
Plasmodium berghei [12] = assay: Antimalarial activity against chloroquine-sensitive Plasmodium berghei ATCC 50175 infected in ICR mouse assessed as chemosuppression of parasitemia at 25 mg/kg/day, po pretreated for 4 days before infection and measured after 72 hrs; type: functional
Plasmodium berghei [13] = assay: Antimalarial activity against chloroquine-sensitive Plasmodium berghei ATCC 50175 infected in ICR mouse assessed as parasitemia at 10 mg/kg/day, po pretreated for 4 days before infection and measured after 72 hrs (reference value: 4.6+/-0.21 %); type: functional
Plasmodium berghei [14] = assay: Antimalarial activity against chloroquine-sensitive Plasmodium berghei ATCC 50175 infected in ICR mouse assessed as reduced parasitemia at 25 mg/kg/day, po administered 24 hrs post-treatment measured on day 3; type: functional; parameters: scale not given: the % may be the effect or the level left
Plasmodium berghei [15] = assay: Antimalarial activity against chloroquine-sensitive Plasmodium berghei ATCC 50175 infected in ICR mouse assessed as reduced parasitemia at 5 mg/kg/day, po administered 24 hrs post-treatment measured on day 3; type: functional; parameters: scale not given: the % may be the effect or the level left
Mus musculus = assay: Toxicity against chloroquine-sensitive Plasmodium berghei ATCC 50175 infected ICR mouse at 5 to 25 mg/kg, po; type: organism-based; parameters: dose 5-25 mg/kg, route oral; settings: in vivo
Plasmodium berghei [16] = assay: Antimalarial activity against chloroquine-sensitive Plasmodium berghei ATCC 50175 infected in ICR mouse assessed as parasitemia at 25 mg/kg/day, po pretreated for 4 days before infection and measured after 72 hrs (reference value: 4.6+/-0.21 %); type: functional
Plasmodium berghei [17] = assay: Antimalarial activity against chloroquine-sensitive Plasmodium berghei ATCC 50175 infected in ICR mouse assessed as parasitemia at 5 mg/kg/day, po pretreated for 4 days before infection and measured after 72 hrs (reference value: 4.6+/-0.21 %); type: functional
Plasmodium berghei [18] = assay: Antimalarial activity against chloroquine-sensitive Plasmodium berghei ATCC 50175 infected in ICR mouse assessed as chemosuppression of parasitemia at 5 mg/kg/day, po pretreated for 4 days before infection and measured after 72 hrs; type: functional
Plasmodium berghei [19] = assay: Antimalarial activity against chloroquine-sensitive Plasmodium berghei ATCC 50175 infected in ICR mouse assessed as parasitemia at 5 mg/kg/day, po administered 24 hrs post-treatment measured after 4 days (reference value: 56.3+/-0.16 %); type: functional
Plasmodium berghei [20] = assay: Antimalarial activity against chloroquine-sensitive Plasmodium berghei ATCC 50175 infected ICR mouse assessed as increase in mouse survival at 5 to 25 mg/kg/day, po administered 24 hrs post-treatment; type: functional
Plasmodium berghei [21] = assay: Antimalarial activity against chloroquine-sensitive Plasmodium berghei ATCC 50175 infected in ICR mouse assessed as parasitemia at 25 mg/kg/day, po administered 24 hrs post-treatment measured after 4 days (reference value: 56.3+/-0.16 %); type: functional
Plasmodium berghei [22] = assay: Antimalarial activity against chloroquine-sensitive Plasmodium berghei ATCC 50175 infected ICR mouse assessed as survival of mouse at 10 mg/kg/day, po for 4 days measured after 27 days; type: functional, organism-based
Plasmodium berghei [23] = assay: Antimalarial activity against chloroquine-sensitive Plasmodium berghei ATCC 50175 infected ICR mouse assessed as survival of mouse at 5 mg/kg/day, po for 4 days measured after 30 days; type: functional, organism-based
Plasmodium berghei [24] = assay: Antimalarial activity against chloroquine-sensitive Plasmodium berghei ATCC 50175 infected ICR mouse assessed as survival of mouse at 5 mg/kg/day, po for 4 days measured after 25 days; type: functional, organism-based
Plasmodium berghei [25] = assay: Antimalarial activity against chloroquine-sensitive Plasmodium berghei ATCC 50175 infected ICR mouse assessed as survival of mouse at 25 mg/kg/day, po for 4 days measured after 30 days; type: functional, organism-based

CCc1nc(N)nc(N)c1-c1ccc(Cl)cc1 [PYRIMETHAMINE]
Activity (Plasmodium berghei [1]): 4.6% | Activity (Plasmodium berghei [2]): 91.8%

OC[C@H]1O[C@@H](OC[C@@H]2O[C@H](Oc3cc(O)cc(/C=C/c4ccc(O)cc4)c3)[C@@H](O)[C@H](O)[C@H]2O)[C@H](O)[C@@H](O)[C@@H]1O
Activity (Plasmodium berghei [3]): 44.3% | Activity (Plasmodium berghei [4]): 73.2% | Activity (Plasmodium berghei [5]): 60.2% | Activity (Plasmodium berghei [6]): 18.75% | Activity (Plasmodium berghei [7]): 89.4% | Activity (Plasmodium berghei [8]): 86.3% | Activity (Plasmodium berghei [9]): 22.4% | Activity (Plasmodium berghei [10]): 70.6% | Activity (Plasmodium berghei [11]): 73.6% | Activity (Plasmodium berghei [12]): 80.1% | Activity (Plasmodium berghei [13]): 16.5% | Activity (Plasmodium berghei [14]): 34.37% | Activity (Plasmodium berghei [15]): 6.25% | Activity (Mus musculus): Non-toxic | Activity (Plasmodium berghei [16]): 11.3% | Activity (Plasmodium berghei [17]): 23.2% | Activity (Plasmodium berghei [18]): 58.7% | Activity (Plasmodium berghei [19]): 31.3% | Time (Plasmodium berghei [20]): 96 h | Activity (Plasmodium berghei [21]): 15.2%

CCN(CC)CCCC(C)Nc1ccnc2cc(Cl)ccc12 (stereo not drawn) [CHLOROQUINE]
Activity (Plasmodium berghei [3]): 89.3% | Activity (Plasmodium berghei [22]): Active | Activity (Plasmodium berghei [23]): Active | Activity (Plasmodium berghei [19]): 6.2% | Activity (Plasmodium berghei [24]): Active | Activity (Plasmodium berghei [25]): Active
